Measurements taken from the NIST ThermoML archive (doi:10.1016/j.jct.2011.02.018).

Assay: xn = mol fraction of the nth substance listed
Conditions: 101 kPa, Liquid; for viscosity: Concentric cylinders viscometry; for mass density: Vibrating tube method

COC(C)(C)C [2-methoxy-2-methylpropane] + CCCCCCO
Conditions	mass density, 293.15 K [kg/m3]	mass density, 298.15 K [kg/m3]	mass density, 303.15 K [kg/m3]	mass density, 308.15 K [kg/m3]	viscosity, 293.15 K [mPa·s]	viscosity, 298.15 K [mPa·s]	viscosity, 303.15 K [mPa·s]	viscosity, 308.15 K [mPa·s]
x1 = 0.0103	818.26	814.71	811.1	807.46	5.223	4.46	3.832	3.31
x1 = 0.0204	817.68	814.12	810.49	806.85	5.039	4.314	3.714	3.214
x1 = 0.0304	817.11	813.53	809.9	806.24	4.87	4.175	3.6	3.12
x1 = 0.0408	816.51	812.92	809.27	805.6	4.696	4.036	3.486	3.026
x1 = 0.0495	816	812.4	808.75	805.07	4.562	3.925	3.395	2.951
x1 = 0.0625	815.23	811.62	807.96	804.26	4.361	3.761	3.259	2.839
x1 = 0.0705	814.74	811.12	807.44	803.74	4.252	3.67	3.185	2.779
x1 = 0.0799	814.17	810.54	806.85	803.14	4.113	3.555	3.09	2.699
x1 = 0.0912	813.49	809.83	806.14	802.42	3.959	3.433	2.991	2.621
x1 = 0.0994	813.01	809.36	805.66	801.92	3.852	3.343	2.913	2.549
x1 = 0.1508	809.87	806.15	802.39	798.59	3.253	2.842	2.493	2.198
x1 = 0.205	806.42	802.7	798.86	795	2.733	2.44	2.173	1.892
x1 = 0.2579	802.99	799.15	795.26	791.32	2.318	2.067	1.848	1.634
x1 = 0.3	800.17	796.26	792.3	788.3	2.047	1.828	1.636	1.468
x1 = 0.3574	796.2	792.23	788.18	784.11	1.724	1.56	1.392	1.257
x1 = 0.4012	793.09	789.05	784.94	780.8	1.53	1.368	1.239	1.122
x1 = 0.4501	789.54	785.43	781.24	777.03	1.324	1.197	1.09	0.9929
x1 = 0.5028	785.58	781.39	777.12	772.81	1.145	1.045	0.9538	0.8711
x1 = 0.5637	780.83	776.53	772.16	767.75	0.9727	0.8921	0.8183	0.7502
x1 = 0.598	778.11	773.75	769.31	764.84	0.8885	0.8156	0.7488	0.6862
x1 = 0.6508	773.76	769.32	764.78	760.21	0.7769	0.7149	0.6592	0.6063
x1 = 0.7	769.62	765.05	760.44	755.77	0.6805	0.6305	0.5829	0.5443
x1 = 0.7493	765.32	760.67	755.96	751.19	0.6088	0.5658	0.523	0.481
x1 = 0.7994	760.79	756.02	751.14	746.31	0.5397	0.5033	0.4676	0.4306
x1 = 0.8514	755.91	751.04	746.09	741.09	0.4782	0.4484	0.4172	0.389
x1 = 0.903	750.84	745.85	740.79	735.68	0.424	0.397	0.3679	0.3464
x1 = 0.9095	750.2	745.2	740.12	735	0.418	0.3923	0.3635	0.3436
x1 = 0.9204	749.1	744.07	738.99	733.83	0.4077	0.3825	0.3535	0.3351
x1 = 0.9294	748.16	743.14	738	732.83	0.3999	0.3756	0.3485	0.3282
x1 = 0.9397	747.1	742.04	736.89	731.69	0.3904	0.3661	0.3396	0.3202
x1 = 0.9495	746.08	741.01	735.83	730.61	0.382	0.3603	0.3326	0.3124
x1 = 0.9589	745.09	739.99	734.79	729.54	0.374	0.3542	0.3253	0.3083
x1 = 0.969	744.04	738.91	733.68	728.41	0.3661	0.3441	0.3206	0.3023
x1 = 0.9791	742.95	737.79	732.55	727.25	0.3582	0.337	0.3139	0.2969
x1 = 0.9899	741.78	736.6	731.33	726.01	0.3508	0.3303	0.3069	0.2898
